# Values quoted from earlier work as cited in US10059696B2, “Process for preparing 1,3-dihydroimidazole-2-thione derivatives” (BIAL-PORTELA & CA, S.A., priority 2011, dated 2018).
# Conditions: able to cause central as well as peripheral effects
smiles,measurement,value
NCc1c[nH]c(=S)n1[C@H]1CCc2c(F)cc(F)cc2C1 [nepicastat],blood brain barrier (BBB) crossing,found to cross the blood brain barrier
